Like-named read-outs stand apart in the source and are kept apart here. No end group written: not given here.
Experiments:
PC-3 cells [1] = assay: Annexin V/PI staining with FACS; format: cell-based, human; settings: N=4
Procedure: Cells were seeded in a six-well plate and treated through various treatments to modulate MCL1 or p73 expression as they were in previous experiments. After the 24 or 48 h treatment, cells were collected through trypsin dissociation and washed twice with sterile DPBS. Cell number was counted on a BioRad Automated Cell Counter. After final wash, cells were pelleted at 1000×g for 10 min. The cell pellet was resuspended in 1× Annexin V binding buffer (BD Pharmingen, 556454) and 5 × 10^5 cells were transferred to a FACS tube containing 5 μL propidium iodide (PI) staining solution (BD Pharmingen, 51-66211E) and 5 μL FITC-Annexin V (BD Pharmingen, 556419). Cells were incubated for 15 min in the dark. FACS was collected on a BD LSRFortessa and analyzed using FlowJo v10. Compensation controls used for analysis include unstained cells and cells stained for each individual fluorophore (FITC-Annexin V and Cy5-PI). Gating strategy eliminated cell debris and doublets through forward and side scatter plots.
Supplemental Fig 3. […] Cells were stained with Annexin V and Propidium Iodide (PI) to determine the apoptotic cell population. […] All plots shown here are representative plots of the data set, N=4.

H1299 cells = assay: TaqMan RT-qPCR of p73 target genes in H1299; format: cell-based, human; settings: 24 h, normalized to GAPDH, biological and technical triplicate
Procedure: Four known p73 target genes were analyzed by TaqMan RT-qPCR. After a baseline was established, H1299 cells were treated with b an siRNA targeting MCL1 (48 h) or c 2 μM MCL1 inhibitor A1210477 (24 h). […] All experiments were performed in biological and technical triplicate. Bar graphs shown with SEM of one representative assay. A Student’s t-test was applied to each target gene for each treatment for statistical analysis, p-values: *p < 0.05, **p < 0.01, ***p < 0.001, ****p < 0.0001.
RNA was purified from human cancer cell lines for RT-qPCR with the SurePrep TrueTotal RNA Purification Kit (Fisher BioReagents, BP2800-50) by the manufacturer’s protocol. The final concentration of purified RNA was measured using a Nanodrop 2000c spectrophotometer. Once RNA concentration was determined, a single step cDNA synthesis reaction was made in TempAssure PCR 8-Tube Strips (USA Scientific, 1402-2500) in technical duplicate as follows: 100 ng RNA, 16 μL nuclease-free water (Ambion, 1512103), and 4 μL qScript cDNA SuperMix (Quanta BioSciences Inc., 84034). […] Concentration was determined after the cDNA synthesis on the Nanodrop 2000c spectrophotometer. cDNA was diluted to 25 ng/μL into Molecular Biology Grade Water (Corning, 46-000-CM) and stored at −20 °C for future use. […]
All RT-qPCR reactions were performed in biological triplicate. […] All target genes analyzed were normalized to GAPDH. […]

recombinant MCL1 [2] = target: T1, recombinant MCL1 (Homo sapiens, UniProt Q07820); assay: Competitive fluorescence polarization assay (FPA), MCL1 with F-BAK probe; format: binding
T1 construct: made in house; host or cells: E. coli BL21 (DE3)
T1 sequence (Q07820 whole entry): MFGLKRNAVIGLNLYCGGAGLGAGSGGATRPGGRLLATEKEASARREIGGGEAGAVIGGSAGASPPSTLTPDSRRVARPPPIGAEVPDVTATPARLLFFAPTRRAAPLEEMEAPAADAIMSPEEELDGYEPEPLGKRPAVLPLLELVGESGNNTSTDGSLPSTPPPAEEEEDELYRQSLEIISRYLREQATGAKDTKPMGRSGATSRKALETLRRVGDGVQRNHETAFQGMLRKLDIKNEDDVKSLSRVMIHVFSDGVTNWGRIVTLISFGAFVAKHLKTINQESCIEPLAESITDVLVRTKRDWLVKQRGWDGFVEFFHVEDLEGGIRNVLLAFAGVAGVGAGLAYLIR
Text: (§1) We next sought to determine which core domain, the DBD or the TD, of p73 mediates binding to MCL1. […] Therefore, we expressed and purified recombinant p73DBD and tested its ability to associate with MCL1 using competitive fluorescence polarization assay (FPA) analysis and NMR chemical shift perturbation (CSP) studies (Fig. 2a, Supplementary Fig. 1). FPA is a biochemical assay that can either determine the binding constant between a recombinant protein and a fluorescently labeled small molecule or peptide (i.e. direct FPA as a measure of KD) or it can determine the concentration in which an unknown binding partner can compete with bound fluorescently labeled ligand (competitive FPA as a measure of IC50).
In a flat-bottom, untreated black 96-well microplate (ThermoScientific), 80 μL recombinant protein is incubated with 10 μL 10× unlabeled peptide or small molecule inhibitor shaking at 300 rpm for 20 min to allow for binding. Once complete, 10 μL of 10× FITC-peptide is added per well. The plate is covered with an opaque lid to shake for an additional 40 min. After 1 h incubation is complete, the plate is read using the FP-Fluorescein setting (1.0 s, CW lamp filter—F485, emission filter, F535) on a Perkin Elmer Victor X5 plate reader. The buffer used for all assays is 1× PBS, pH 7.4. All experiments were completed in technical and biological triplicate. All data plotted in Fig. 2 is one representative assay in technical triplicate.

PC-3 cells [3] = assay: TaqMan RT-qPCR of p73 target genes in PC-3; format: cell-based, human; settings: normalized to GAPDH, biological and technical triplicate
Procedure: All RT-qPCR reactions were performed in biological triplicate. A master mix for each target or housekeeping gene was made with 15 μL RNAse-free water, 3 μL 20× RT-qPCR Primer Mix (ThermoScientific), 12 μL 25 ng/μL cDNA, and 30 μL TaqMan Universal Master Mix II, with UNG (Applied Biosystems, 2020-02-29). The mix was aliquoted out 20 μL/well in technical triplicate with the final concentration of cDNA at 100 ng/reaction. PCR reactions were performed on an Applied Biosystems ViiA 7 Real-Time PCR System for 40 cycles starting at 25 °C. Each cycle is 50 °C for 2 min, 95 °C for 10 min, and 15 s, and 60 °C for 1 min. Temperature shifts at 1.6 °C/s. All data are collected and analyzed using Applied Biosystems QuantStudio Real-Time PCR Software. All target genes analyzed were normalized to GAPDH. All primers had FAM-MGB probes. All TaqMan primers were ordered from ThermoFisher Scientific with the target gene and Assay ID included: CDKN2A/p21 (Hs00355782_m1), PMAIP1/NOXA (Hs00560402_m1), GADD45A (Hs00169255_m1), BBC3/PUMA (Hs00248075_m1), GAPDH (Hs02758991_g1).
Four known p73 target genes were analyzed by TaqMan RT-qPCR. After a baseline was established, cells were treated with b an siRNA targeting MCL1 or c 2 μM MCL1 inhibitor A1210477. […] All experiments were performed in biological and technical triplicate. Bar graphs shown with SEM of one representative assay. […]

PC-3 cells [4] = assay: Cellular fractionation and western blot after cisplatin; format: cell-based, human; settings: low dose (printed 5 mM), 24 hours, vs 0.5% DMF, western blot
Procedure: Cellular localization was performed using the NE-PER Nuclear and Cytoplasmic Extraction Reagent Kit (ThermoScientific, 78833) per the manufacturer’s protocol. The western blot quantification analysis was completed in the Image Lab 6.0.1 software using the Adjusted Volume tool. All assays were completed in biological triplicate with one representative image for each treatment group and/or cell line.
Cells were fractionated in cytosolic and nuclear compartments. Protein localization was analyzed through Western Blot analysis. Lamin A/C and GAPDH were used for fractionation controls. Band quantifications using the adjusted volume for each individual band are below for reference. All paired samples are normalized to the WCL treated with DMF alone.

recombinant MCL1 [5] = target: T1, recombinant MCL1; assay: Direct FPA of FITC-labeled peptides with MCL1; format: binding; settings: N-terminally FITC-labeled peptide with recombinant MCL1; 1x PBS pH 7.4; 30 min; at or approaching limit of detection of probe
Text: as §1
The buffer used for all assays is 1× PBS, pH 7.4. All experiments were completed in technical and biological triplicate.

15N MCL1 = assay: 2D [15N,1H]-HSQC NMR chemical shift perturbation of 15N MCL1; format: binding, human; settings: 50 μM 15N MCL1 + 200 μM ligand; 1x PBS pH 6.8; significant CSP = >2SD above mean (0.046 ppm)
Procedure: Fig. 3 P73 binds to the BH3-binding groove of MCL1. a 2D [^15N, ^1H]-HSQC spectra of 50 μM ^15N MCL1 + 2% DMSO (black contours) or 50 μM ^15N MCL1 + 200 μM p73_23mer TD-derived peptide (red contours). Amino acids with significant CSP (Δδ > 0.046 ppm: G217, F228, N239, D241, D242, H252, I264, V265, L267, I268, E292, L298, V299, T301, D304, and H320) or residues that were unable to be identified in the bound spectra (V216, G219, V220, V243, […], S247, R263, G271, R303, K308, and F315) are labeled for reference. b CSP quantified as a function of Δδ ppm for each amino acid residue. The first dotted line indicates 1SD from the mean (0.023) and the solid line indicates 2SD from the mean (0.046). Amino acids with significant CSP were identified as >2SD above the mean (blue). Amino acids that were unable to be identified in the bound spectra were set to −0.01 to differentiate them from peaks with no CSP (red). […]
The NMR HSQC spectra were acquired using a Bruker 600 MHz magnet at the Central Alabama High Field NMR Facility. […] The resulting spectra were analyzed using Computer-Aided Resonance Assignment (CARA) and the peak lists were exported to Microsoft Excel for the CSP quantification and calculation of the mean and standard deviation. […]
Supplemental Fig 1. […] The two cut offs represent the 1 and 2 SD cut offs determined through the 50 µM 15N hMCL1 + 200 µM p7323mer spectra in Fig 2.

[6] = competitive FPA, 50 nM recombinant MCL1, 10 nM F-BAK, unlabeled peptide titration, 1x PBS pH 7.4, 20 min pre-incubation + 40 min, mean ± SD, biological and technical triplicate, read-out: FPA IC50

What does the source list for Cc1nn(C)c(COc2ccc(N3CCN(S(=O)(=O)N(C)C)CC3)cc2)c1-c1cccc2c(CCCOc3cccc4ccccc34)c(C(=O)O)n(CCN3CCOCC3)c12 [A1210477]?
Apoptotic induction, Annexin V/PI (PC-3 cells [1]; 2 μM, 24 hours, vs 0.5% DMSO): no increase in apoptotic induction; p73 target gene expression (p21, NOXA, GADD45, PUMA) (H1299 cells; 2 μM): significant increases in gene expression in at least three of the four p73 target genes; IC50 (recombinant MCL1 [2]): 2590 nM; p73 target gene expression (p21, NOXA, GADD45, PUMA) (PC-3 cells [3]; 2 μM): significant increases in gene expression in at least three of the four p73 target genes

Which results are given for N.N.[Cl][Pt][Cl] [cisplatin]?
Apoptosis, Annexin V/PI, positive control (PC-3 cells [1]; 50 µM): significant increase in apoptosis; MCL1 protein levels in cytoplasmic and nuclear fractions (PC-3 cells [4]): increase MCL1 levels in both the cytoplasmic and nuclear compartments; p73 target gene expression (p21, NOXA, GADD45, PUMA) (H1299 cells; 10 μM): statistically significant increases in expression in at least three of the four p73 target genes; p73 target gene expression (p21, NOXA, GADD45, PUMA) (PC-3 cells [3]; 5 μM, 24 h): statistically significant increases in expression in at least three of the four p73 target genes

How did the IC50 (recombinant MCL1 [2]; [6]) turn out when DEDTYYLQVR-NH2 [β1] was run?
Its IC50 is over 10000 nM.

With GRENFEILMKLKESLELMELVPQ-NH2 [p73_23mer] as the compound, how does the Kd (recombinant MCL1 [5]) read?
The Kd was at most 5 nM.

And the IC50 (recombinant MCL1 [2]; competitive FPA, 50 nM recombinant MCL1, 10 nM F-BAK, unlabeled peptide titration, 1x PBS pH 7.4, 20 min pre-incubation + 40 min, mean ± SD, biological and technical triplicate, SD, read-out: FPA IC50)?
Its IC50 is 982 ± 195 nM.

For VPQPLVDSYRQQQQLLQR-NH2 [α2], which IC50 (recombinant MCL1 [2]; [6]) is on record?
The IC50 was over 10000 nM.

With “p73DBD: recombinant p73 DNA-binding domain alone, amino acids 112–311” as the compound, how does the “Association with MCL1 in competitive FPA” value (recombinant MCL1 [2]; 50 nM recombinant MCL1, 10 nM F-BAK, titration of unlabeled protein) read?
Its value is “Neither NMR nor competitive FPA analysis exhibited significant changes”.

And the “Chemical shift perturbation of MCL1” value (15N MCL1)?
Its value is “No amino acids in this spectra exhibited significant shifts”.
